Measured values taken from patent publication US20220241285A1, “ORAL CAPSULE AND PREPARATION METHOD THEREFOR” (BEIGENE SWITZERLAND GMBH, priority 2019, published 2022).

Experiments:
Format in all cases: physicochemical
[1] = Hygroscopicity of the active pharmaceutical ingredient; details: active pharmaceutical ingredient (API)
[2] = XRPD of the mixed powder in the study on the mixing process (crystal form stability); details: mixed powder of Example 1, mixing process
[3] = Solubility / biopharmaceutical classification

With C=CC(=O)N1CCC([C@@H]2CCNc3c(C(N)=O)c(-c4ccc(Oc5ccccc5)cc4)nn32)CC1 [zanubrutinib, (S)-7-[4-(1-acryloylpiperidine)]-2-(4-phenoxyphenyl)-4,5,6,7-tetrahydropyrazolo[1,5-a]pyrimidine-3-carboxamide] as the molecule, how does the hygroscopicity [1] read?
The hygroscopicity was “slightly hygroscopic”.

What about the “crystal form of zanubrutinib in the process (XRPD)” value [2] of the same molecule?
The value was “remained unchanged”.

And the “class of the biopharmaceutical classification system” value [3]?
Its value is “class II”.

What about the solubility [3] of the same molecule?
The solubility was “pH-dependent”.
